# Reference: US11014890B2, “Forms of (R)-N-(4-chlorophenyl)-2-(cis-4-(6-fluoroquinolin-4-yl)cyclohexyl)propanamide” (SHENZHEN RENTAI PHARMATECH LTD, priority 2018, dated 2021)
# Assays:
# Assay type in all cases: physicochemical
# [1] = light stability test (XRPD comparison); settings: 25° C. and 4500 lux of light, 5 d and 10 d; XRPD FIGS. 11, 12 and 27
# Description: (§1) X-Ray Powder Diffractometer (XRPD)
# (§2) Model: Bruker, Germany, BRUKER D8 DISCOVER
# (§3) Method: Cu target Ka, voltage 40 KV, current 40 mA, test angle 3-45°, step size 0.02, exposure time 0.2 S, light pipe slit width 1 mm, detector slit width 2.7 mm.
# Model: Shanghai Yiheng Scientific Instrument Co., Ltd., MGC-100
# (§4) The products prepared in Embodiment 1 and Embodiment 6, and the amorphous active pharmaceutical ingredient were respectively subjected to experimental tests for light stability, high-temperature stability, accelerated stability, high-humidity stability, and water adsorption.
# (1) The test products were respectively placed under 25° C. and 4500 lux of light and tested for 5 d and 10 d stability, and the results are shown in FIGS. 11, 12 and 27.
# [2] = high-temperature stability test (XRPD comparison); settings: 60° C., 5 d and 10 d; XRPD FIGS. 13, 14 and 28
# Description: as §1, §2, §3
# Electrothermal Constant-Temperature Dry Box
# (§5) Model: DHG-9011A (Shanghai Jinghong Experimental Equipment Co., Ltd.) Programmable drug stability constant temperature and humidity tester
# as §4
# (2) The test products were respectively placed under 60° C. and tested for 5 d and 10 d stability, and the results are shown in FIGS. 13, 14 and 28.
# [3] = accelerated stability test (XRPD comparison); settings: 40° C. and humidity of 75% RH; XRPD FIGS. 15, 16 and 29
# Description: as §1, §2, §3, §5
# Model: CMA-100C (Shanghai Puhan Precision Equipment Co., Ltd.)
# as §4
# [4] = high-humidity stability test (XRPD comparison); settings: 25° C. and humidity of 92.5% RH; XRPD FIGS. 32, 33 and 34
# Description: as §1, §2, §3, §4
# [5] = water adsorption test (DVS); settings: 25° C., humidity 0-90, 10% per step, weight change less than 0.002% in each step of 10 minutes; FIGS. 17, 18 and 30
# Description: DVS Model: SMS, U.K, DVS intrinsic Method: 25° C., 10% humidity per step, the judgment standard is less than 0.002% for 10 min The products prepared in Embodiment 1 and Embodiment 6, and the amorphous active pharmaceutical ingredient were respectively subjected to experimental tests for light stability, high-temperature stability, accelerated stability, high-humidity stability, and water adsorption. (5) The test products were respectively subjected to the water adsorption test, the experimental conditions were as follows: 25° C., humidity 0-90, 10% per step, and the weight change was less than 0.002% in each step of 10 minutes.
Compound,light stability [1],high-temperature stability [2],accelerated stability [3],high-humidity stability [4],"water adsorption (hygroscopic curve, DVS) [5]"
"C[C@@H](C(=O)Nc1ccc(Cl)cc1)[C@H]1CC[C@@H](c2ccnc3ccc(F)cc32)CC1 [Form B, (R)—N-(4-chlorophenyl)-2-(cis-4-(6-fluoroquinolin-4-yl)cyclohexyl)propanamide]",good stability,good stability,good stability,good stability,do not adsorb water
"C[C@@H](C(=O)Nc1ccc(Cl)cc1)[C@H]1CC[C@@H](c2ccnc3ccc(F)cc32)CC1 [amorphous active pharmaceutical ingredient] [(R)—N-(4-chlorophenyl)-2-(cis-4-(6-fluoroquinolin-4-yl)cyclohexyl)propanamide, reference compound]",good stability,good stability,good stability,good stability,large hygroscopicity
"C[C@@H](C(=O)Nc1ccc(Cl)cc1)[C@H]1CC[C@@H](c2ccnc3ccc(F)cc32)CC1 [Form C, (R)—N-(4-chlorophenyl)-2-(cis-4-(6-fluoroquinolin-4-yl)cyclohexyl)propanamide]",good stability,good stability,good stability,good stability,do not adsorb water
